The source of these data is article PMC5694528, “Human mass balance study and metabolite profiling of ^14C-niraparib, a novel poly(ADP-Ribose) polymerase (PARP)-1 and PARP-2 inhibitor, in patients with advanced cancer” (Investigational New Drugs, 2017).

Data set [1] can be described thus: Plasma pharmacokinetics of niraparib and M1 by validated LC-MS/MS after a single oral 300 mg dose of 14C-niraparib. It is filed as in vivo. Conditions: human; for AUC(0-inf): read-out: AUC0-inf (mean); for AUC(0-t): read-out: AUC0-last (mean); for half-life: read-out: t1/2 (mean) (converted); for Tmax: read-out: tmax (median). How it is done:
Dose reductions were allowed twice. […] All patients provided written informed consent. Blood sampling was done at the following time points: pre-dose, 1, 1.5, 2, 3, 4, 6, 9 and 12 hours (h) after administration and in the morning of Day 2, 3, 4, 5, 8, 11, 15 and 22. For each time point, a 10 mL K2EDTA blood collection tube was used (Vacutainer®, Becton, Dickinson and Company, Franklin Lakes, NJ, USA) and blood was drawn via a peripheral line. […] Separate aliquots were made for radioactivity measurements as well as LC-MS/MS and metabolite profiling experiments. All samples were stored at −80 °C. […] Gradient elution was applied using 20 mM ammonium acetate in water (mobile phase A) and 0.1% formic acid in acetonitrile-methanol (50:50, v/v; mobile phase B). […] Quality control samples were prepared and analysed together with the study samples. […] Analysis was done by a non-compartmental method using WinNonlin Phoenix Version 6.2.1 or higher (Pharsight Corporation, St. Louis, Missouri, USA).

Data set [2] in a line: Metabolite profiling in plasma, urine and faeces by LC-LSC-MSn. Type of data set: in vivo, human. The settings on record: for Amount excreted in urine (0–144 h) / Amount excreted total, urine and faeces (0–144 h) / Amount excreted in faeces (0–144 h): % of administered dose; for Plasma exposure: relative AUC0-168h (% of AUC0-168h from total 14C): 0-168 h. The method, then:
Metabolite profiling was divided into two parts: metabolite screening and identification, and metabolite quantification. During the first part, inter-patient pooled samples were analysed to screen for the presence of metabolites. Afterwards, individual patient samples or within-patient pooled samples (depending on the matrix) were analysed and metabolites found during the screening phase were quantified. Plasma, urine and faeces samples were selected both for screening and quantification. Three time points were selected for screening of plasma samples. Besides the pre-dose, a sample around the tmax was chosen, because these samples contained the highest amount of radioactivity. It was also of interest to select a sample in which the amount of radioactivity was much higher than the amount of parent compound, because this is indicative of the presence of metabolites. Consequently, 4 h and 48 h were selected and screened for metabolites. Individual patient samples from 0 […] and 168 h were analysed and metabolites in these samples were quantified. All urine samples were pooled within patients, and afterwards these samples were pooled between patients. […] The same procedure was applied for faeces samples. Again, 24 h-interval pools were made, first within patients and then between patients. The latter were used for metabolite screening, whereas the first were analysed afterwards, during the quantification step. […] Plasma samples (pre-dose, 4 h and 48 h) were pooled by equal volumes. In addition, the individual samples (pre-dose, 4 h, 12 h, 24 h, 48 h, 72 h and 168 h) were analysed. Plasma samples were extracted once with acetonitrile-methanol (50:50, v/v). […] An aliquot of the clear supernatant was analysed for total radioactivity to determine extraction efficiency. The remaining supernatant was used for analysis by LC-MS^n in combination with off-line LSC (LC-LSC-MS^n). Urine samples were first pooled within patients. […] These samples were analysed without pre-treatment. […] Faeces homogenate samples were extracted once with 0.1% formic acid in acetonitrile. […] An aliquot of the clear supernatant was analysed for total radioactivity to determine extraction recovery. The remaining supernatant was used for LC-LSC-MS^n analysis. Samples were analysed by LC (Shimadzu, Kyoto, Japan) coupled to a linear ion trap mass spectrometer (Thermo Electron, Waltham, MA, USA) in combination with off-line LSC (LC-Linear Ion Trap LTQ XL Mass Spectrometry (MS)-LSC). To separate known and unknown metabolites, an HPLC gradient was applied. A flow rate of 1 mL/min was maintained during the following 50-min gradient: starting at 10%B and increasing to 36.25%B over 35 min, then to 90%B in 12 min. This was held for 2 min and then it was reverted back to the initial conditions of 10%B at 49 min. Mobile phase A consisted of 20 mM ammonium acetate in water and mobile phase B consisted of 0.1% formic acid in acetonitrile. Structural information on niraparib metabolites was obtained using Data Dependent Acquisition. Accurate mass measurements were performed to confirm the chemical structures of the metabolites. These measurements were performed on an Ultimate 3000 LC (Dionex) coupled to an LTQ Orbitrap XL MS (Thermo Electron, Waltham). The same gradient composition was applied. […] The metabolite profiles of ^14C-niraparib-derived radioactivity were determined for selected aliquots of extracts of plasma, urine and faecal homogenates using LC-MS/MS, fractionation and off-line LSC. After pre-treatment, samples were injected onto a Phenomenex Synergi Hydro-RP (250 × 4.6 mm, 4 μm) column. Data Dependent Acquisition was applied, causing the detection and fragmentation of the most abundant ions. Besides this, a parent list with possible metabolites was constructed, meaning that apart from the most abundant ions, also the ones with the masses in this parent list were further fragmentised for which MS^2 and MS^3 spectra were obtained. […]

The procedure of data set [3]:
Six evaluable patients were enrolled in this open-label mass balance clinical study (ClinicalTrials.gov identifier NCT02476552) and were admitted to the study center for at least 10 days, with the 11th day being optional. […] From the moment of administration, all urine and faeces were collected. […] Dose reductions were allowed twice. The study was conducted in conformance with the International Conference on Harmonisation (ICH) guidelines for Good Clinical Practice (GCP) and in accordance with the Declaration of Helsinki. The protocol was approved by the Netherlands Cancer Institute Independent Ethics Committee. All patients provided written informed consent.
For the purpose of the mass balance study and metabolite profiling, urine and faecal samples were collected. Urine was collected at pre-determined intervals: pre-dose, 0–12 h, 12–24 h, 24–36 h and 36–48 h after administration. From Day 3 onwards, urine was collected over periods of 24 h. Urine was stored in polyethylene containers at 2–8 °C for the duration of the collection period. After each collection period, urine samples were mixed thoroughly, weighed, portioned into aliquots, and then frozen at ≤ − 70 °C. Separate aliquots were made in polypropylene tubes for analysis by LC-MS/MS, metabolite profiling and TRA analysis by LSC.
Faeces were collected and weighted per stool. Sample pre-treatment involved diluting and homogenising the faeces by adding water (1:3 w/v; B. Braun). A T25 basic Ultra Turrax (IKA Works, Staufen, Germany) was used to homogenise the samples before aliquoting. Urine and faeces sample collection occurred according to the following requirements: • If the total radioactivity in the Day 14 faecal/urine sample is detected to be higher than 0.1% and the total recovery of accumulative radioactivity ≤85% (faeces and urine) of the radioactivity of the dose given, faecal/urine samples will be collected every 24 h through Day 21. • If the total radioactivity in the Day 21 faecal/urine sample is detected to be higher than 0.1% and the total recovery of accumulative radioactivity ≤85% (faeces and urine), faecal/urine samples will continue to be collected every 24 h. • Faecal/urine sample collection will stop after Day 21, if the recovered radioactivity is below 1% (per 24 h) for the two consecutive days prior to Day 21 (Day 19 and Day 20). If this is not the case, collection will stop as soon as the recovered radioactivity is below 1% (per 24 h) for two consecutive days after Day 21.
TRA analysis was performed on a Liquid Scintillation Counter Tri-Carp 2910 (PerkinElmer, Groningen, The Netherlands). Aliquots of 200 μL of whole blood, plasma and faeces (all in duplicate), and 1 mL of urine (in singular) were transferred to scintillation vials. Whole blood and faecal samples needed to be moderately translucent and colourless. Therefore, 2-propanol (1 mL) was added to faecal samples to dissolve fibres, NaEDTA (0.1 mL) was added to whole blood to reduce foaming, and Solvable™ (1 mL) was added to both matrices to solubilise tissue. Hydrogen peroxide 30% (0.4 mL to faeces and 0.5 mL to whole blood) was added to reduce colour intensity. These samples were placed in a water bath (at least 40 °C; GF1086, Salm en Kipp, Breukelen, The Netherlands) to stimulate the chemical processes. Finally, 10 mL of Ultima Gold™ Cocktail (PerkinElmer) was added and the samples were analysed, either for 60 min or until the 2-sigma error was less than or equal to 5%, whichever came first. A scintillant blank was used to provide as a background sample.

The conditions of data set [4]: population pharmacokinetic analysis, all the patients in NOVA study; cited from earlier work.
The test system of data set [5] is recurrent, platinum sensitive, ovarian, fallopian tube, or primary peritoneal cancer. The settings on record: adult patients in complete or partial response to platinum-based chemotherapy; cited from earlier work.
The conditions of data set [6]: daily dose of 300 mg; cited from earlier work.
Data set [7] can be described thus: Safety assessment (NCI CTCAE) in the mass balance study.
Source text: The National Cancer Institute Common Terminology Criteria for Adverse Events (NCI CTCAE) grading system was used to describe the severity of the adverse events (AEs) that occurred. Haematology, blood chemistry and vital signs were also part of the safety assessment.
Where [8] appears, read: plasma, single oral dose 300 mg 14C-niraparib, n = 6.
The mark [9] stands for this setting: % of administered dose, up to 144 h.
Setting [10] is: % of administered radioactive dose, through 504 h post-dose.

Like-named read-outs stand apart in the source and are kept apart here. A value given as a limit tells only on which side of the number the result lay.

As for `O=C(O)c1cccc2cn(-c3ccc([C@@H]4CCCNC4)cc3)nc12` [Compound M1, Amide hydrolysed niraparib], in data set [1] (setting [8]), the peak concentration (Cmax) turned out to be 476 ng/mL, the AUC(0-inf) is 41200 ng·h/mL, the AUC(0-t) turned out to be 40800 ng·h/mL and the half-life is 3.27 days. Besides, the Tmax in data set [1] (setting [8]) worked out at 9.02 h. Also, in data set [2], the “Amount excreted in urine (0–144 h)” value came to 20.0%; the “Amount excreted total, urine and faeces (0–144 h)” value (shortened to “Amount excreted total”) turned out to be 22.4%. For the same molecule, in data set [2] (listed as M1 (4)), the “Amount excreted in faeces (0–144 h)” value worked out at 2.4%, the “Amount excreted in urine (0–144 h)” value is listed as 20% and the “Plasma exposure: relative AUC0-168h (% of AUC0-168h from total 14C)” value amounted to 9.3%.
With `COC(=O)c1cccc2cn(-c3ccc([C@@H]4CCCNC4)cc3)nc12` [Methylated M1 (7), Methylated M1], in data set [2], the “Amount excreted in urine (0–144 h)” value is “not detected” and the “Plasma exposure: relative AUC0-168h (% of AUC0-168h from total 14C)” value came out at 2.5%.
Turning to `NC(=O)c1cccc2cn(-c3ccc([C@@H]4CCCNC4)cc3)nc12` [niraparib, 2-{4-[(3S)-piperidin-3-yl]phenyl}-2H-indazole-7-carboxamide], the Vd/F in data set [1] (in vivo, oral, cancer patients, across the clinical studies, read-out: apparent Vd/F, collective conclusion) is no less than 1000 L. Further, in data set [1] (setting [8]), the maximum concentration (Cmax) is 540 ng/mL, the AUC(0-inf) amounted to 18500 ng·h/mL, the AUC(0-t) turned out to be 18400 ng·h/mL and the half-life is 3.64 days. In addition, the Tmax in data set [1] (setting [8]) came out at 2.49 h. In addition, the Vd/F in data set [1] (plasma, single oral dose 300 mg 14C-niraparib, n = 6, read-out: Vd/F (mean)) is 2170 L. For the same molecule, in data set [3] (setting [9]), the “Total radioactivity recovered in excreta (urine and faeces)” value worked out at 71.6%; the “Total radioactivity recovered in faeces” value was determined as 31.6%; the “Total radioactivity recovered in urine” value worked out at 40%. Further, in data set [3] (setting [10]), the “Mean total radioactivity recovered in excreta (urine and faeces)” value was determined as 86.3%; the “Mean total radioactivity recovered in faeces” value stood at 38.8%; the “Mean total radioactivity recovered in urine” value was determined as 47.5%. For the same molecule, the “Administered dose recovered in excreta” value in data set [3] (within the first 4 days (96 h) after dosing) is listed as “over 50%”. Also, in data set [2] (listed as Niraparib (5)), the “Amount excreted in faeces (0–144 h)” value was determined as 18.7%; the “Amount excreted in urine (0–144 h)” value came to 10.5%; the “Amount excreted total” value was determined as 29.2%. In data set [2] (listed as niraparib (5)), the “Amount excreted in faeces (0–144 h)” value worked out at 18.7% and the “Amount excreted in urine (0–144 h)” value is 10.5%. Also, in data set [4], the “apparent Vd/F” value is reported as 1074 L. The “progression-free survival (PFS)” value in data set [5] is “met its primary endpoint of improving progression-free survival”. For the same molecule, the tolerability entry in data set [6] was “well tolerated”. The “Grade of AEs considered likely to be related to study treatment” value in data set [7] (NCI CTCAE) is no more than 2 grade. Further, the “TEAEs leading to study drug discontinuation or death” value in data set [7] (six patients) is on record as “no TEAEs led to study drug discontinuation or death”. The “Total number of adverse events reported” value in data set [7] (six patients, single oral dose 300 mg) was 21.
Consider M1-glucuronide [Compound M10], for which, in data set [2], the “Amount excreted in urine (0–144 h)” value amounted to 6.2% and the “Plasma exposure: relative AUC0-168h (% of AUC0-168h from total 14C)” value is listed as 55.7%.
On the same counts, the results for M1-glucuronide [M10 (1)] are “<LLOQ” and 6.0%.
Take M1-glucuronide [M10 (2)]: in data set [2], the “Amount excreted in urine (0–144 h)” value was found to be 6.2%; the “Amount excreted total” value was determined as 6.2%; the “Plasma exposure: relative AUC0-168h (% of AUC0-168h from total 14C)” value was 26.8%.
With M1-glucuronide [M10 (3)], in data set [2], the “Amount excreted in urine (0–144 h)” value is “<LLOQ” and the “Plasma exposure: relative AUC0-168h (% of AUC0-168h from total 14C)” value was determined as 22.9%.

By Cmax is commonly meant the maximum level reached in the sampled fluid or tissue. The term Tmax denotes the time at which the peak concentration occurs.
